The subject of this assay is E. coli WT ribosome GFP fluorescence, mixed culture, 24 h. Put plainly: growth inhibition of wild-type GFP E. coli, dose response, h38 mutant RFP, cherry-pick (AID 977622).
The mark [1] stands for this setting: E. coli mixed culture, 24 h, measured here: total growth OD600.

Molecules are shown by their SMILES. Records with an inconclusive call do not appear. Activity calls are given as the source filed them.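 Rule for the calls: active = Green signal of the normal strain falls at least twice as much as red signal of the resistant mutant, with overall culture growth loss under a set limit; inconclusive = no clear call, values can overlap the other calls; inactive = the rest.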

With `COC(=O)c1c(NC(=O)CCC(=O)O)sc(Cc2ccccc2)c1C`, the AC50 is > 100 µM (inactive). Moreover, the AC50 under setting [1] stood at 18.8 µM.

Consider `Nc1ccccc1C#CC(=O)c1ccccc1`, for which the AC50 is > 100 µM (inactive). For the compound `CSc1ccccc1NC(=O)c1ccccc1N(Cc1ccccc1)S(C)(=O)=O`, the AC50 was > 100 µM (inactive). On to `O=C(CC(c1ccccc1)c1cc(Br)ccc1O)N1CCCC1` (centres undefined), for which the AC50 was > 100 µM (inactive). With `COc1ccc(NC(=O)Nc2cccc3c2O[C@H](CN(C)S(=O)(=O)c2ccc(Cl)cc2)[C@H](C)CN([C@H](C)CO)C3=O)cc1`, the AC50 is > 100 µM (inactive). Moreover, under setting [1], the AC50 came out at 44.2 µM. For `CC(Nc1ncnc2ccccc12)c1ccccc1` (centres undefined), in that order: > 100 µM (inactive) and > 100 µM. As for `O=C(O)c1cccnc1SCc1ccccc1Cl`, the AC50 was > 100 µM (inactive). This compound yielded an AC50 under setting [1] of 42.8 µM. Turning to `CCN(C(=O)c1ccnc(C(C)(C)C)c1)c1ccccc1`, the AC50 was > 100 µM (inactive). Consider `O=C(O)c1ccc(-c2nc(-c3ccccc3)cs2)cc1`, for which the AC50 was > 100 µM (inactive). Regarding `COC(=O)C[C@H]1C[C@@H]2c3cc(NC(=O)Nc4ccc(C(F)(F)F)cc4)ccc3O[C@@H]2[C@H](CO)O1`, the AC50 is > 100 µM (inactive). Also, the AC50 under setting [1] was > 100 µM. For `COc1ccc(CC(=O)NCc2csc(-c3cccs3)n2)cc1OC`, the AC50 under setting [1] is > 100 µM.

Regarding `CC(=O)Nc1cccc(-c2ccnc3c2CC(C(=O)Nc2ccc4c(c2)OCO4)O3)c1` (centres undefined), the AC50 is > 100 µM (inactive). As for `O=[N+]([O-])c1ccc2nc(-c3ccccc3[N+](=O)[O-])[nH]c2c1`, the AC50 is > 100 µM (inactive). The AC50 under setting [1] is > 100 µM. As to `O=C1N[C@@H](Cc2ccccc2)COC(=O)[C@H](Cc2ccc(F)cc2)C/C=C\C[C@H]1CC(=O)N(CCO)Cc1ccccc1`, the AC50 was > 100 µM (inactive). Still for that read-out and setting: for `CCCN(CC(=O)Nc1ccccc1C)C(=O)c1cccc(S(=O)(=O)N2CCc3ccccc3C2)c1` the value was > 100 µM (inactive); for `CC1CN(CC(=O)Nc2nc3ccccc3s2)CC(C)O1` (centres undefined), > 100 µM (inactive).

In the case of `CN(Cc1ccc([N+](=O)[O-])cc1)c1ccccc1`, the AC50 under setting [1] is > 100 µM. Turning to `CCCn1c(=O)c2ccccc2n2c(SCCOc3ccc(OC)cc3)nnc12`, the AC50 is > 100 µM (inactive). Turning to `COc1ccc2oc(C(=O)NCc3ccco3)c(C)c2c1`, the AC50 was > 100 µM (inactive). `Cc1cccc(Oc2ccc(NC(=O)c3ccccc3C(=O)O)cc2)c1`: the AC50 under setting [1] is > 100 µM.

Turning to `Fc1ccc(-c2nnc(-c3ccc4ccccc4c3)o2)cc1`, the AC50 is > 100 µM (inactive).

As to `Fc1ccc(Br)cc1SCCc1ccncc1`, the AC50 under setting [1] was > 100 µM. With `O=C(Nc1cccc(S(=O)(=O)N2CCCCC2)c1)c1ccc(Cl)nc1`, the AC50 was > 100 µM (inactive). Regarding `CN(c1ccccc1)S(=O)(=O)c1cccc(NC(=O)CCN2C(=O)C3CCCCC3C2=O)c1` (centres undefined), the AC50 was > 100 µM (inactive). Moreover, the AC50 under setting [1] was > 100 µM. In the case of `O=C(Nc1ccc(C(=O)Nc2ccccc2Cl)cc1)c1cccnc1`, the AC50 under setting [1] is > 100 µM. Regarding `CCOc1ccccc1N1CC(C(=O)Nc2cccc(S(=O)(=O)N3CCCCC3)c2)CC1=O` (centres undefined), the AC50 under setting [1] is > 100 µM. Take `Cc1ccc(S(=O)(=O)N2CC[C@H]3[C@H](CO)Nc4ccc(Br)cc4[C@H]32)cc1`: the AC50 was > 100 µM (inactive). Besides, the AC50 under setting [1] came to 29.1 µM. As for `O=C(NCc1ccccc1)c1ccc(-c2cn[nH]c2)c2ccoc12`, under setting [1], the AC50 was > 100 µM. As to `COc1ccc(Cl)cc1C(=O)OCC(=O)c1ccc[nH]1`, the AC50 is > 100 µM (inactive).

As for `Cn1cnc(CCNC(=O)C[C@H]2CC[C@@H]3[C@H](COC[C@H](O)CN3C(=O)Nc3ccc(Cl)cc3)O2)c1`, the AC50 is > 100 µM (inactive). Still for that read-out and setting: under `O=[N+]([O-])c1ccccc1CN1CCN(S(=O)(=O)c2ccccc2)CC1` stands > 100 µM (inactive); under `COC(=O)c1ccc(OS(=O)(=O)c2ccc(NC(C)=O)cc2)cc1`, > 100 µM (inactive). For the compound `O=[N+]([O-])c1ccc(N2CCOCC2)c2c1no[n+]2[O-]`, the AC50 is > 100 µM (inactive). Besides, the AC50 under setting [1] is > 100 µM. With `CC(C)N1CC2(CC(c3ccccc3C(F)(F)F)=NO2)CN1C(=O)c1ccco1` (centres undefined), the AC50 was > 100 µM (inactive). Under setting [1], the AC50 was > 100 µM. Regarding `COc1ccccc1CNC(=O)CN1C(=O)NC(c2ccccc2)(c2ccccc2)C1=O`, the AC50 was > 100 µM (inactive).

With `CCOC(=O)c1c(CS(=O)(=O)c2ccccc2)n(C)c2cc(Br)c(O)cc12`, the AC50 was > 100 µM (inactive). `CCOC(=O)c1sc(NC(=O)CN2CCN(c3ccccc3)CC2)nc1C`: the AC50 was > 100 µM (inactive). Regarding `COc1ccc(NC(=O)Nc2cccc3c2O[C@@H](CN(C)S(=O)(=O)c2ccc(Cl)cc2)[C@@H](C)CN([C@@H](C)CO)C3=O)cc1`, the AC50 is > 100 µM (inactive). For the same compound, the AC50 under setting [1] worked out at 47.3 µM. For the compound `Cc1ccc(C(=O)c2coc3cc([N+](=O)[O-])c(O)c([N+](=O)[O-])c23)cc1`, the AC50 is > 100 µM (inactive). The AC50 under setting [1] was 21.5 µM. Consider `O=C(C[C@@H]1CC[C@H]2[C@@H](COC[C@H](O)CN2C(=O)Nc2cc(Cl)cc(Cl)c2)O1)N1CCOCC1`, for which the AC50 was > 100 µM (inactive). The same measure, in the same setting: for `Cc1ccc(-c2c[n+](CC(=O)OCc3ccccc3)c3n2CCC3)cc1` the value was > 100 µM (inactive); for `O=C(NCc1ccc2c(c1)OCO2)C1CCCN1S(=O)(=O)c1ccc(Cl)cc1` (centres undefined), > 100 µM (inactive). As for `CCc1nn2cc(C(=O)c3cc(Cl)ccc3O)cnc2c1-c1ccc(F)cc1`, the AC50 is > 100 µM (inactive). Further, the AC50 under setting [1] was > 100 µM. Take `CCCCc1ccc(S(=O)(=O)Nc2ccc(C)c(NS(C)(=O)=O)c2)cc1`: the AC50 is > 100 µM (inactive). Under setting [1], this compound registered an AC50 of 51.4 µM. Regarding `COc1ccc(C(=O)NCCc2ccccn2)cc1S(=O)(=O)Nc1ccc(Br)cc1`, the AC50 was > 100 µM (inactive). For the compound `CC(=O)OC1N=C(c2ccccc2Cl)c2cc(Br)ccc2NC1=O` (centres undefined), the AC50 under setting [1] was > 100 µM.

Regarding `CSc1c(-c2ccccn2)c(N)nn1C(=O)C1CC1`, the AC50 was > 100 µM (inactive). As to `Cc1ccc2nc(-c3ccc(Cl)cc3)c(Cc3ccccc3C(F)(F)F)n2c1`, under setting [1], the AC50 was > 100 µM. `O=C(Cc1ccc(Br)cc1)Nc1cccc(-c2cn3c(n2)SCC3)c1`: the AC50 was > 100 µM (inactive). Besides, under setting [1], the AC50 was > 100 µM.

On to `COc1ccc(NC(=O)CSc2n[nH]c(-c3ccncc3)n2)c([N+](=O)[O-])c1`, for which the AC50 is > 100 µM (inactive). Besides, under setting [1], the AC50 was > 100 µM. `Cc1ccsc1C(=O)N1CCCC(C(=O)c2cc(F)ccc2F)C1` (centres undefined): the AC50 is > 100 µM (inactive). Moreover, the AC50 under setting [1] is > 100 µM. For `O=C(C[C@H]1CC[C@@H]2[C@H](COC[C@@H](O)CN2C(=O)Nc2cc(Cl)cc(Cl)c2)O1)N1CCOCC1`, the AC50 is > 100 µM (inactive). Turning to `COC(=O)CN1C(=S)N(c2ccc(Cl)cc2)C(=O)C1CC(=O)Nc1ccc(F)cc1` (centres undefined), the AC50 was > 100 µM (inactive).

For `CCOc1ccc(OCCn2c(=S)[nH]c3c(N)ncnc32)cc1`, the AC50 is > 100 µM (inactive). The same compound had an AC50 under setting [1] of 39 µM.

With `O=C1NC(CCc2ccccc2)C(=O)N1Cc1cccc2ccccc12` (centres undefined), the AC50 is > 100 µM (inactive). This compound displayed an AC50 under setting [1] of 51.5 µM. `O=C(O)c1ccc(Oc2ccc([N+](=O)[O-])cc2)c([N+](=O)[O-])c1`: the AC50 was > 100 µM (inactive). For `O=C(Nc1cccc(Cl)c1)N1C[C@@H]2[C@H](c3ccccc31)[C@H](CO)N2Cc1ccncc1`, the AC50 under setting [1] was > 100 µM. On to `Cc1ccc(C)c(N(CC(=O)NC2CCCC2)C(=O)c2oc(C(C)(C)C)cc2C)c1`, for which, under setting [1], the AC50 is > 100 µM. `Cc1ccc(Nc2cc(C(=O)NCCCN3CCOCC3)c3ccccc3n2)cc1C`: the AC50 is > 100 µM (inactive). Moreover, the AC50 under setting [1] is > 100 µM. Consider `CSc1ccc(CN(C)C(=O)C(c2ccccc2)c2ccccc2)cc1`, for which the AC50 under setting [1] is > 100 µM. As to `Cc1cc(C)c(OCCNC(=O)c2ccccc2Sc2ccccc2C#N)c(C)c1`, the AC50 is > 100 µM (inactive). Consider `CCN(CC)S(=O)(=O)c1ccc(O)c(C(=O)OCC(=O)NC23CC4CC(CC(C4)C2)C3)c1`, for which the AC50 under setting [1] was > 100 µM. As to `CS(=O)(=O)N1CC2CCCN2c2ccc(C(F)(F)F)cc21` (centres undefined), the AC50 under setting [1] is > 100 µM. Turning to `COc1ccccc1Cn1c(=S)[nH]c2ccccc2c1=O`, the AC50 was > 100 µM (inactive). The half-maximal activity concentration (AC50) under setting [1] was found to be 42.1 µM.

For the compound `O=C(NCCc1ccc(O)cc1)c1[nH]c(C(F)(F)F)nc1-c1ccccc1`, the AC50 was > 100 µM (inactive). For the same compound, the AC50 under setting [1] is > 100 µM.

`COc1ccc(C#Cc2ccc([C@@H]3[C@@H](CO)N4CCCCN(C(=O)Nc5ccc(F)cc5)C[C@H]34)cc2)cc1`: the AC50 under setting [1] worked out at 50.6 µM.

As to `Cc1nnc2sc(SCC(=O)Nc3ccc(Br)cc3)nn2c1=O`, the AC50 was > 100 µM (inactive). For the same compound, the AC50 under setting [1] was > 100 µM.

In the case of `C[C@@H]1CN([C@H](C)CO)C(=O)c2cccc(NC(=O)c3ccncc3)c2O[C@@H]1CN(C)S(=O)(=O)c1ccc(Cl)cc1`, the AC50 is > 100 µM (inactive).

In the case of `C[C@@H]1CN([C@H](C)CO)C(=O)CCCn2nncc2CO[C@@H]1CN(C)C(=O)Nc1ccc(C(F)(F)F)cc1`, the AC50 is > 100 µM (inactive). Consider `CC(C)Oc1ccc(C(CC(=O)O)NC(=O)C(Sc2ccccc2)c2ccccc2)cc1` (centres undefined), for which the AC50 is > 100 µM (inactive). In addition, under setting [1], the AC50 is > 100 µM. Consider `COc1ccc(C#Cc2ccc([C@H]3[C@@H](CO)N4CCCCN(C(=O)Nc5cccc(F)c5)C[C@H]34)cc2)cc1`, for which, under setting [1], the AC50 is > 100 µM. `CN1C(=O)c2cc(NC(=O)c3cccc(F)c3)ccc2OC[C@H]2O[C@@H](CC(=O)N3CCc4ccccc4C3)CC[C@@H]21`: the AC50 was > 100 µM (inactive). In the case of `CCCc1nc2cc(C)c(Br)c(C)n2c1CC1CCCCC1`, the AC50 is > 100 µM (inactive). For the compound `Cc1cccc(N2CCN(Cc3nc(-c4ccc(F)cc4F)oc3C)CC2)n1`, under setting [1], the AC50 was > 100 µM. For the compound `Nc1nn(-c2ccccc2)c2ccc([N+](=O)[O-])cc12`, the AC50 is > 100 µM (inactive).

(Values after PubChem BioAssay AID977622 (Broad Institute, 2014).)
